Reference: ChEMBL document CHEMBL4673320, “Structure Elucidation of the spiro-Polyketide Svalbardine B from the Arctic Fungal Endophyte Poaceicola sp. E1PB with Support from Extensive ESI-MS Interpretation” (J Nat Prod, 2020)
Calls of active or inactive are those of the source.

Legend:
Serratia marcescens = experiment: Antibacterial activity against Serratia marcescens ATCC 14756 assessed as reduction in microbial growth at 20 uM after 18 hrs by resazurin based assay; type: functional, organism-based
SH-SY5Y = experiment: Cytotoxicity against human SH-SY5Y cells assessed as reduction in cell viability at 20 uM after 24 hrs by MTT assay; type: functional, cell-based
Pseudomonas aeruginosa = experiment: Antibacterial activity against Pseudomonas aeruginosa ATCC 10145 assessed as reduction in microbial growth at 20 uM after 18 hrs by resazurin based assay; type: functional, organism-based
Shigella flexneri = experiment: Antibacterial activity against Shigella flexneri ATCC 12020 assessed as reduction in microbial growth at 20 uM after 18 hrs by resazurin based assay; type: functional, organism-based
Escherichia coli = experiment: Antibacterial activity against Escherichia coli ATCC 25922 assessed as reduction in microbial growth at 20 uM after 18 hrs by resazurin based assay; type: functional, organism-based
Salmonella typhimurium = experiment: Antibacterial activity against Salmonella typhimurium ATCC 14028 assessed as reduction in microbial growth at 20 uM after 18 hrs by resazurin based assay; type: functional, organism-based; settings: Salmonella enterica subsp. enterica serovar Typhimurium, DT104 ATCC 14028
Staphylococcus aureus = experiment: Antibacterial activity against Staphylococcus aureus ATCC 25923 assessed as reduction in microbial growth at 20 uM after 18 hrs by resazurin based assay; type: functional, organism-based
Yersinia enterocolitica = experiment: Antibacterial activity against Yersinia enterocolitica ATCC 23715 assessed as reduction in microbial growth at 20 uM after 18 hrs by resazurin based assay; type: functional, organism-based
[1] = test system: Staphylococcus haemolyticus; experiment: Antibacterial activity against Staphylococcus haemolyticus ATCC 29970 assessed as reduction in microbial growth at 20 uM after 18 hrs by resazurin based assay; type: functional, organism-based
Enterobacter cloacae = experiment: Antibacterial activity against Enterobacter cloacae ATCC 35030 assessed as reduction in microbial growth at 20 uM after 18 hrs by resazurin based assay; type: functional, organism-based
[2] = test system: Staphylococcus ureilyticus; experiment: Antibacterial activity against Staphylococcus cohnii subsp. urealyticum assessed as reduction in microbial growth after at 20 uM 18 hrs by resazurin based assay; type: functional

Measured: Activity

COc1cc(O)c2c(c1C)[C@@H](C)[C@@](O)(CO)OC2=O
inactive: all assays above

COC(=O)c1cc(OC)cc(O)c1C(=O)C1CC2(CCc3cc(OC)cc(C(=O)OC)c3C2=O)C(=O)C2=C(C)OC(C)=CC21 (stereo unspecified)
inactive: all assays above

CCCc1oc(=O)cc(OC)c1C
inactive: all assays above

C=C1OC(=O)c2c(O)cc(OC)c(C)c2[C@H]1C
inactive: all assays above

COC(=O)c1cc(OC)cc2c1-c1oc(C)cc(=O)c1CO2
inactive: all assays above

COc1cc(=O)oc(C[C@H](C)O)c1C
inactive: all assays above
